The record followed here is paper PMC8397403, “Physiologically Based Pharmacokinetic Modeling of Transporter-Mediated Hepatic Disposition of Imaging Biomarker Gadoxetate in Rats” (Molecular Pharmaceutics, 2021).

As a reminder, the inhibition is the relative decrease from the control value, in per cent.

The nature of data set [1]: Pitavastatin uptake in plated rat hepatocytes with and without rifamycin SV (positive control for transporter activity). The class given is in vitro ADME. Conditions: male, Sprague-Dawley, rat, plated primary rat hepatocytes; pitavastatin 0.2 μM, absence of rifamycin SV, 0.5-2 min; mean (CV 24%); read-out: Unbound intrinsic uptake clearance (CLint,u). How it is done:
(§1) Male adult Sprague-Dawley rats (Charles River, Margate, Kent, UK) were housed in groups of two in individually ventilated cages with free access to food (Chow rat and mouse diet) and fresh drinking water. The designated rat housing facility maintained a controlled temperature (20 ± 3 °C), humidity (40–70%), and 12 h light/dark cycle conditions. All animal protocols were approved by the University of Manchester review committee and adhered to the UK Home Office Animals (Scientific Procedures) Act (1986). Rats (250–300 g) were sacrificed using CO2 overdose followed by cervical dislocation in the morning of the study day. The kinetics experiment, as described below, was performed using n = 4 animals. […] Following sample preparation including addition of internal standard (Table S1), gadoxetate and pitavastatin in cell samples, and gadoxetate in media samples, were quantified by liquid chromatography–tandem mass spectrometry (LC–MS/MS). LC–MS/MS quantification was performed using selective reaction monitoring (SRM) against calibration standards; only standards within 30% of nominal concentration were included. The protein content of plated rat hepatocytes was measured using the Pierce BCA Protein Assay Kit (Thermo Fisher Scientific, Paisley, UK). […]

In data set [2] the test system is active uptake transport of gadoxetate into the liver. Kind of data set: Simultaneous PBPK fitting of gadoxetate DCE-MRI data in control and rifampicin phases. The class given is in vivo, rat. The following applies: Rattus norvegicus. The procedure:
DCE–MRI data generated using the 3D Fast Low Angle Shot RF-spoiled gradient echo sequence (FLASH) protocol in male Wistar-Han rats were used for assessing the PBPK IVIVE performances and for obtaining some of the PBPK parameters within the bottom-up and top-down approaches, respectively. The DCE–MRI data were acquired in a multicenter study at two magnetic field strengths, 4.7 and 7 T. Gadoxetate was administered at a dose of 25 μmol/kg, either alone or 1 h after IV administration of 10 mg/kg rifampicin. When gadoxetate was administered alone (control arm), 43 profiles of blood, spleen, and liver measured at a field strength of 4.7 T and 52 profiles of blood, spleen, and liver measured at 7 T were available. In the case of gadoxetate administered with rifampicin, 7 blood, spleen, and liver profiles at a field strength equal to 4.7 T and 6 at 7 T were available. All gadoxetate DCE–MRI data and study protocols are detailed in a companion paper (Hines et al. in submission).
The DCE–MRI data used in this study were reported as ΔR1. Therefore, the relationship between the compartmental concentrations represented by the PBPK model state variables and the ΔR1 measurements for the blood, liver, and spleen needed to be described. The linear relationship in eq 4 is not valid for ΔR1 of the liver, ΔR1,liv, because intracellular and extracellular tissue compartments have different relaxivities. To derive ΔR1,liv, a volume fraction-weighted mean of the contributions of the gadoxetate concentration in all the compartments used to model the liver was performed.[40] In the spleen, the entire distribution space was supposed to have the same relaxivity as blood and, therefore, eq 4 can be applied directly to derive spleen concentrations from ΔR1,spl. Concerning the blood, the blood value for r1 in Table 1 allows ΔR1,b to be directly related to the blood concentration. The relations between ΔR1,liv, ΔR1,spl, and ΔR1,b and the concentrations of the PBPK compartments are shown in eq 7. [drawing 7] 7 cspl,extr is the extracellular concentration in the spleen and Vspl,extr is the extracellular volume of the spleen and Vliv and Vspl are the whole volumes of liver and spleen. r1,liv,extr and r1,spl,extr were assumed to be equal to r1,b, as described in Hines et al.
In fact, each of the data are acquired during a time interval Δt, which was 57 s in the current dataset. To account for this characteristic when performing the parameter estimation, the residuals were calculated as the difference of the observed ΔR1 corresponding to a given time interval minus the mean of the simulated PBPK ΔR1 within the same interval, as explained in the Supporting Information, Section 4.
The extent of interaction with rifampicin was estimated by performing a simultaneous fitting of gadoxetate ΔR1 in the control and inhibitory phase. In this analysis, PS was considered the same for both phases, whereas the other parameters were separately estimated in the absence (CLactive and CLbiliary) and in the presence of rifampicin (CLactive,inh and CLbiliary,inh). CLbiliary,inh was considered to account for possible inhibition of Mrp2 in rat by rifampicin, as previously reported.[45] To understand the impact of the inclusion of the liver-imaging data on the parameter optimization, the simultaneous estimation was also performed considering only the blood data.
All the PBPK analyses were performed in MATLAB R2020a,[50] the ordinary differential equations were solved with the function “ode15s”, while the parameter optimization was performed with the function “lsqnonlin”. The uncertainty of the parameters estimate was evaluated with the case-bootstrap,[51] using 1000 samples.

The next data set has as its system plated rat hepatocytes. Nature of the data set: Pitavastatin uptake in plated rat hepatocytes with and without rifamycin SV (positive control for transporter activity). Conditions: 100 μM rifamycin SV; pitavastatin 0.2 μM; mean (CV 23%). It counts as in vitro ADME. The procedure:
as §1

Like-named read-outs stand apart in the source and are kept apart here.

For `O=C(O)C[C@H](O)C[C@H](O)/C=C/c1c(C2CC2)nc2ccccc2c1-c1ccc(F)cc1` [pitavastatin], the hepatocyte CLint at 0.2 μM in data set [1] is 95.7 µL/min/1e6 cells.

With `CO[C@H]1/C=C/O[C@@]2(C)Oc3c(C)c(O)c4c(O)c(c(/C=N/N5CCN(C)CC5)c(O)c4c3C2=O)NC(=O)/C(C)=C\C=C\[C@H](C)[C@H](O)[C@@H](C)[C@@H](O)[C@@H](C)[C@H](OC(C)=O)[C@@H]1C` [rifampicin], the inhibition at 10 mg/kg is 96% in data set [2] (iv, rifampicin i.v. 10 mg/kg, fit with blood, spleen and liver data, read-out: inhibition of gadoxetate CLactive (active uptake into the liver)); 84% in data set [2] (rifampicin 10 mg/kg, only blood ΔR1 profiles (without liver data), read-out: inhibition of gadoxetate CLactive, blood ΔR1 only).

As for `CO[C@H]1/C=C/O[C@@]2(C)Oc3c(C)c(O)c4c(O)c(cc(O)c4c3C2=O)NC(=O)/C(C)=C\C=C\[C@H](C)[C@H](O)[C@@H](C)[C@@H](O)[C@@H](C)[C@H](OC(C)=O)[C@@H]1C` [rifamycin SV], the “reduction of the uptake of pitavastatin” value in the data set with plated rat hepatocytes amounted to 54%.
